The structures appear in SMILES notation. Peptide text beside a SMILES is read from it.

Assay type in all cases: cell-based
The test system of assay [1] is JJN3 plasma cell leukemia cell line. Briefly: JJN-3 assay (Alamar blue). To be noted: Homo sapiens, 72 h. Summed up: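 For both lines, 5000 cells/well were exposed to compound or a 1% DMSO-medium control for 72 h unless otherwise specified. Signal was normalized to the DMSO control.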
For assay [2], the system named is VCAMss+10aa/Gaussia Luciferase. Briefly: VCAM-ss-Gluc assay (constitutively active or Dox induced). To be noted: Flp-In 293 T-REx cells, 24 hours. In short, it runs like this: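 Stable cell lines secreting a VCAM signal sequence+10aa/Gaussia luciferase fusion, expressed either constitutively or under T-REx doxycycline control. Cells plated the day before; compound dilutions in DMSO/media (with doxycycline for the induced line) added and incubated at 37° C, 5% CO2.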

Assay [3] concerns U266B1 multiple myeloma cell line. Briefly: U266 assay (cell viability, Celltiter-Glo). Particulars: Homo sapiens, U-266; 48 hours, cell viability. On the procedure: Cells were plated in 384-well tissue culture plates and treated with compound dilutions in DMSO/media. Plates were incubated at 37° C., 5% CO2 for 48 hours. After 48 hours, Celltiter-Glo@ (Promega) was added to each well and luciferase signal was quantified using Tecan Infinite M1000 Pro for cell viability determination.

Assay [4] relates to PD1-ss+10aa/Gaussia Luciferase. Briefly: Dox induced PD1-ss-Gluc assay. Particulars: Flp-In 293 T-REx cells, doxycycline, 24 hours; read-out: PD1ss Gluc IC50. In short, it runs like this: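 Stable Flp-In 293 T-REx line expressing doxycycline-inducible Gaussia luciferase fused to the PD1 signal sequence plus 10 amino acids. Cells plated the day before, then exposed to compound dilutions in DMSO/media containing doxycycline at 37 °C, 5% CO2.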

The test system of assay [5] is Prl-ss+10aa/Gaussia Luciferase. Briefly: Prl-ss-Gluc assay (constitutively active or 24 hr Dox inducible). To be noted: Flp-In 293 T-REx cells, 24 hours; read-out: Prl IC50. Summed up:
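Stable Flp-In 293 T-REx lines express Prl signal sequence+10aa fused to Gaussia luciferase, either constitutively (pcDNA5/FRT) or under the T-REx promoter (pcDNA5/FRT/TO). Cells plated the day before; compounds in DMSO/media (with doxycycline for the inducible line, 24 h) incubated at 37 °C, 5% CO2.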

The next assay relates to HER3ss-Gluc. Nature of the assay: HER3ss assay. To be noted: HEK-293T T-rex cells, transient transfection, doxycycline, 24 h; read-out: HER3 ss IC50. In short, it runs like this: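 HEK-293T T-REx cells were transiently transfected with HER3 signal sequence (plus four mature-domain residues) fused upstream of mature Gaussia luciferase. Cells were induced with doxycycline (1 μg/ml) and exposed to increasing compound concentrations for 24 h, then secreted luciferase in the conditioned medium was read by luminescence.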

Regarding `C#CC[C@H]1OC(=O)[C@H](C)N(C)C(C)[C@H](C[C@H](C)CCCC)NC(=O)[C@H](Cc2ccccc2)N(C)C(=O)[C@H](CC(C)C)NC(=O)[C@H](CC(C)C)N(C)C(=O)[C@H](C[C@H](C)CCCC)NC1=O` (stereo partly drawn) [C-01], the results for the 50% effective concentration (EC50) in assay [1] and in assay [3] were 0.222 µM and 23.5 µM, respectively. The 50% inhibitory concentration (IC50) in assay [2] is 0.015 µM; in assay [4], 0.056 µM; in assay [5], 11.6 µM; with HER3ss-Gluc it was 0.04 µM.

Regarding `CC(C)C[C@@H]1NC(=O)[C@H](Cc2cn(Cc3ccccc3)c3ccccc23)N(C)C(=O)[C@H](CC(C)C)NC(=O)[C@H](CC(C)C)N(C)C(=O)[C@H](CC(C)C)NC(=O)[C@@H](CCC#N)OC(=O)[C@H](C)N(C)C1=O` [C-16] (HELM PEPTIDE1{L.[meA].[N#CCC[C@@H](O[*:1])C(=O)[*:2]].L.[meL].L.[CN([C@@H](Cc1cn(Cc2ccccc2)c2ccccc12)C(=O)[*:2])[*:1]]}$PEPTIDE1,PEPTIDE1,1:R1-7:R2$$$V2.0), the values for the EC50 in assay [1] and in assay [3] were 0.245 µM and 13.4 µM, respectively. Besides, the concentration for half-maximal inhibition (IC50) is 0.082 µM in assay [2], 0.027 µM in assay [4], 1.82 µM in assay [5] and 0.038 µM in the assay on HER3ss-Gluc.

Source of the values: patent US11339193B2, “CDP protein secretion inhibitors” (KEZAR LIFE SCIENCES, priority 2018, dated 2022).
